According to patent US20080171729A1, “Use Of A Steroid For Enhancement Of Skin Permeability” (Novartis AG, priority 2004, published 2008):

Assay: Skin penetration/permeation assay in static Franz-type diffusion cells, untreated or corticosteroid pre-treated split-thickness skin
Format: in vitro ADME, domestic pigs
Description: Three young, male castrated domestic pigs with body weights of approximately 15 kg are used as skin donors. The animals are obtained from a local breeder and maintained under standardized conditions (22±1°, 55±5% relative humidity, 10 changes of fresh air/hour, 12 hours day/12 hours night cycle). After a settling-in period of 7 days the pigs are treated topically on test areas on the dorsolateral back • with CS solutions in EtOH/propylene glycol (3+7, v/v) as a solvent, and • contra-laterally with solvent alone, twice daily for 5 days. HC (Sigma) at 1.0%, MOM (Sequoia Research Products) at 0.1% and CLO (Sigma) at 0.05% are used as CS. The CS-samples and solvent alone are applied in volumes of 50 μl to skin areas of 3.5×6.5 cm each. All three CS and solvent alone are applied to all animals. 16 hours after the last application the animals are killed and the treated skin samples are dissected. Full-thickness skin samples are dissected from vehicle- and CS-treated sites and cut into 0.4 mm split-thickness skin samples with a dermatome (Aesculap®). The samples include the epidermal layers and the superficial part of the dermis but no deep dermal layers and no subcutaneous fat. […] Schmook F B, Stütz A, Reinhardt J, Skin Pharmacol 1993; 6: 116-124. PBS/EtOH 3:1 is used as receptor phase. All experiments are performed at 32° in triplicates for 48 hours. Test compounds are applied to the epidermal side of the skin samples in their marketed formulations, i.e. Elidel® 1% cream (pimecrolimus) and Protopic® 0.1% ointment (tacrolimus), each in amounts of 300 mg. Samples of 100 μl are taken from the receptor phase at 5 time points during the 48-hours experiment and replaced by fresh receptor fluid. After addition of an internal standard (ASD732, see e.g. EP569337) the samples are directly analyzed by RPLC using MS-based detection. […] Specimens from the stripped skin are taken with a biopsy punch, weighed and then homogenized in 0.1 M sodium phosphate buffer, pH 7. Following addition of an internal standard (ASD732) and buffer of pH 10 to the homogenates, extraction is performed with tert-butyl methylether. Solvent from each extract obtained is evaporated, each residue obtained is redissolved and subjected to analysis by RPLC using MS-based detection. Receptor fluid samples are analyzed by RP-HPLC with MS detection in ESI positive mode (LC-MS/MS analysis). The MS/MS mode is used to increase selectivity. LC-MS/MS analysis is carried out with an Agilent 1100 Series Capillary LC System coupled to a Finnigan LCQ mass spectrometer. A Phenomenex Luna C18(2) column (3 μm, 100×2 mm) equipped with a precolumn is used and eluted isocratically with a flow rate of 100 μl/minute at 60°. The effluent is delivered unsplit to the ESI ion-source. Under the chromatographic conditions used, all compounds tested yield a strong sodium adduct. For MS/MS parent ions are selected. The quantification of the parent ions is based on the area ratio of the fragment ions to the fragment ion of the internal standard.

[1] = pre-treated skin compared with untreated skin

SMILES | permeation rate increased by factor (CLO pre-treatment compared with untreated skin) | permeation rate increased by factor (HC-pre-treatment compared with untreated skin) | permeation rate increased by factor (MOM pre-treatment compared with untreated skin) | skin penetration (skin concentration) enhanced [1] | permeation rate of tacrolimus in comparison with pimecrolimus, times higher (CLO-pretreated skin) | permeation rate of tacrolimus in comparison with pimecrolimus, times higher (HC-pre-treated skin) | permeation rate of tacrolimus in comparison with pimecrolimus, times higher (MOM-pre-treated skin) | permeation rate increased by factors (corticosteroid pretreated samples (range over HC, MOM, CLO) compared with untreated skin) | skin penetration (skin concentration) enhanced, in words [1] | permeation rate of tacrolimus in comparison with pimecrolimus, times higher (untreated skin)
CC[C@@H]1/C=C(\C)C[C@H](C)C[C@H](OC)[C@H]2O[C@@](O)(C(=O)C(=O)N3CCCC[C@H]3C(=O)O[C@H](/C(C)=C/[C@@H]3CC[C@H](Cl)[C@H](OC)C3)[C@H](C)[C@@H](O)CC1=O)[C@H](C)C[C@@H]2OC [pimecrolimus] | 4.1 | 3.8 | 2.9 | at least 10% | – | – | – | – | – | –
C=CC[C@@H]1/C=C(\C)C[C@H](C)C[C@H](OC)[C@H]2O[C@@](O)(C(=O)C(=O)N3CCCC[C@H]3C(=O)O[C@H](/C(C)=C/[C@@H]3CC[C@H](O)[C@H](OC)C3)[C@H](C)[C@@H](O)CC1=O)[C@H](C)C[C@@H]2OC [tacrolimus] | – | – | – | – | 3.5 | 5.9 | 7.1 | 1.3-1.9 | not significantly | 11.2
